Data from the NIST ThermoML archive (doi:10.1021/je0341918).

Experiment: xn = mol fraction of the nth substance listed
Details: 101.3 kPa, Liquid

OCCCCO [1,4-butanediol] + O
Details	mass density [kg/m3]	viscosity [mPa·s]
293.15 K, x1 = 0.0218	1001.44	1.792
293.15 K, x1 = 0.0478	1005.97	2.65
293.15 K, x1 = 0.0789	1010.98	3.889
293.15 K, x1 = 0.1175	1015.71	5.788
293.15 K, x1 = 0.1665	1019.86	8.755
293.15 K, x1 = 0.2305	1022.86	11.86
293.15 K, x1 = 0.3179	1024.32	19.07
293.15 K, x1 = 0.4441	1024.18	31.72
293.15 K, x1 = 0.6426	1021.57	56.69
293.15 K, x1 = 0.7917	1019.04	73.61
293.15 K, x1 = 0.8663	1017.74	80.53
293.15 K, x1 = 1	1015.76	90.33
303.15 K, x1 = 0.0218	998.53	1.418
303.15 K, x1 = 0.0478	1002.4	1.957
303.15 K, x1 = 0.0789	1006.62	2.756
303.15 K, x1 = 0.1175	1010.6	3.954
303.15 K, x1 = 0.1665	1014.11	5.775
303.15 K, x1 = 0.2305	1016.62	7.633
303.15 K, x1 = 0.3179	1017.88	12.09
303.15 K, x1 = 0.4441	1017.65	19.66
303.15 K, x1 = 0.6426	1015.15	34.96
303.15 K, x1 = 0.7917	1012.77	45.5
303.15 K, x1 = 0.8663	1011.48	49.82
303.15 K, x1 = 1	1009.54	55.98
313.15 K, x1 = 0.0218	994.86	1.176
313.15 K, x1 = 0.0478	998.21	1.522
313.15 K, x1 = 0.0789	1001.79	2.053
313.15 K, x1 = 0.1175	1005.16	2.835
313.15 K, x1 = 0.1665	1008.13	4.008
313.15 K, x1 = 0.2305	1010.28	5.198
313.15 K, x1 = 0.3179	1011.36	8.018
313.15 K, x1 = 0.4441	1011.09	12.78
313.15 K, x1 = 0.6426	1008.76	22.43
313.15 K, x1 = 0.7917	1006.4	29.65
313.15 K, x1 = 0.8663	1005.15	32.53
313.15 K, x1 = 1	1003.31	35.74
323.15 K, x1 = 0.0218	990.45	0.981
323.15 K, x1 = 0.0478	993.4	1.222
323.15 K, x1 = 0.0789	996.45	1.573
323.15 K, x1 = 0.1175	999.34	2.124
323.15 K, x1 = 0.1665	1001.87	2.909
323.15 K, x1 = 0.2305	1003.72	3.683
323.15 K, x1 = 0.3179	1004.68	5.573
323.15 K, x1 = 0.4441	1004.42	8.706
323.15 K, x1 = 0.6426	1002.32	14.6
323.15 K, x1 = 0.7917	1000	19.29
323.15 K, x1 = 0.8663	998.84	21.11
323.15 K, x1 = 1	997.14	23.63
333.15 K, x1 = 0.0218	985.4	0.871
333.15 K, x1 = 0.0478	987.96	1.042
333.15 K, x1 = 0.0789	990.59	1.281
333.15 K, x1 = 0.1175	993.09	1.652
333.15 K, x1 = 0.1665	995.27	2.191
333.15 K, x1 = 0.2305	996.89	2.705
333.15 K, x1 = 0.3179	997.78	4.017
333.15 K, x1 = 0.4441	997.58	6.143
333.15 K, x1 = 0.6426	995.75	10.12
333.15 K, x1 = 0.7917	993.6	13.04
333.15 K, x1 = 0.8663	992.48	14.29
333.15 K, x1 = 1	990.93	16.17
343.15 K, x1 = 0.0218	979.61	0.783
343.15 K, x1 = 0.0478	981.88	0.905
343.15 K, x1 = 0.0789	984.16	1.081
343.15 K, x1 = 0.1175	986.37	1.338
343.15 K, x1 = 0.1665	988.29	1.719
343.15 K, x1 = 0.2305	989.74	2.055
343.15 K, x1 = 0.3179	990.6	2.991
343.15 K, x1 = 0.4441	990.49	4.471
343.15 K, x1 = 0.6426	988.97	7.211
343.15 K, x1 = 0.7917	987.21	9.223
343.15 K, x1 = 0.8663	986.17	10.11
343.15 K, x1 = 1	984.81	11.45
353.15 K, x1 = 0.0218	973.52	0.723
353.15 K, x1 = 0.0478	975.53	0.809
353.15 K, x1 = 0.0789	977.47	0.94
353.15 K, x1 = 0.1175	979.3	1.108
353.15 K, x1 = 0.1665	981.05	1.381
353.15 K, x1 = 0.2305	982.41	1.804
353.15 K, x1 = 0.3179	983.3	2.283
353.15 K, x1 = 0.4441	983.33	3.358
353.15 K, x1 = 0.6426	982.14	5.276
353.15 K, x1 = 0.7917	980.68	6.743
353.15 K, x1 = 0.8663	979.77	7.321
353.15 K, x1 = 1	978.59	8.28
